Measured values reported in the supplement of paper PMC13380429.
± gives the standard deviation of the averaged measurements.

Key:
Conditions in all cases: 72 h
[1] = test system: Caco-2; test: cell viability relative to DMSO; higher = less toxic
[2] = test system: Calu-3; test: as above
[3] = test system: Vero E6; test: as above
[4] = test system: U2OS; test: as above
[5] = test system: HepG2; test: as above
[6] = test system: Caco-2; test: relative viability EC50 (midpoint between 100% and the lowest measured viability); higher = less toxic
[7] = test system: Calu-3; test: as above
[8] = test system: Vero E6; test: as above
[9] = test system: U2OS; test: as above
[10] = test system: HepG2; test: as above
[11] = test system: Caco-2; test: drug sensitivity score (DSS) for viability; higher = more toxic; extreme values may be limits of the assay
[12] = test system: Calu-3; test: as above
[13] = test system: Vero E6; test: as above
[14] = test system: U2OS; test: as above
[15] = test system: HepG2; test: as above

Row | Structure (SMILES) | cell viability ([1]; 1 nM) | cell viability ([1]; 10 nM) | cell viability ([1]; 100 nM) | cell viability ([1]; 1000 nM) | cell viability ([1]; 10000 nM) | cell viability ([2]; 1 nM) | cell viability ([2]; 10 nM) | cell viability ([2]; 100 nM) | cell viability ([2]; 1000 nM) | cell viability ([2]; 10000 nM) | cell viability ([3]; 1 nM) | cell viability ([3]; 10 nM) | cell viability ([3]; 100 nM) | cell viability ([3]; 1000 nM) | cell viability ([3]; 10000 nM) | cell viability ([4]; 1 nM) | cell viability ([4]; 10 nM) | cell viability ([4]; 100 nM) | cell viability ([4]; 1000 nM) | cell viability ([4]; 10000 nM) | cell viability ([5]; 1 nM) | cell viability ([5]; 10 nM) | cell viability ([5]; 100 nM) | cell viability ([5]; 1000 nM) | cell viability ([5]; 10000 nM) | relative viability EC50 [6] | relative viability EC50 [7] | relative viability EC50 [8] | relative viability EC50 [9] | relative viability EC50 [10] | drug sensitivity score [11] | drug sensitivity score [12] | drug sensitivity score [13] | drug sensitivity score [14] | drug sensitivity score [15]
1 | Fc1ccc2c(CCNCc3cccc(OCC(F)(F)C(F)F)c3)c[nH]c2c1 [idalopirdine] | 96.3% | 97.5% | 91.5% | 87.1% | 109% | 90.3% | 102% | 91.4% | 101% | 99.7% | 101% | 95.2% | 98.7% | 95.2% | 84.9% | 95.3% | 97% | 99.7% | 95.4% | 96.7% | 97.5% | 93.7% | 99.2% | 94.8% | 88.2% | > 10 µM | > 10 µM | > 10 µM | > 10 µM | > 10 µM | 0 | 0 | 0.5 | 0 | 0
2 | C[C@H]1c2cccc(O)c2C(=O)C2=C(O)[C@]3(O)C(=O)C(C(N)=O)=C(O)[C@@H](N(C)C)[C@@H]3[C@@H](O)[C@@H]21 [doxycycline] | 90.2 ± 11% | 96.8 ± 0.85% | 92.6 ± 3.1% | 90.1 ± 5.4% | 88 ± 0.92% | 95.8 ± 5.4% | 108 ± 3.1% | 107 ± 3.3% | 104 ± 2.9% | 99.8 ± 8% | 101 ± 2.9% | 95.8 ± 4.3% | 101 ± 4.5% | 97.8 ± 9.4% | 100 ± 1.8% | 96.5 ± 1.9% | 98.8 ± 1.1% | 96.2 ± 2% | 101 ± 2.3% | 98.6 ± 4% | 100 ± 2.8% | 94.3 ± 5.3% | 98.7 ± 9.5% | 108 ± 21% | 94.8 ± 4.3% | > 10 µM | > 10 µM | > 10 µM | > 10 µM | > 10 µM | 0.05 ± 0.071 | 0 | 0 | 0 | 0
3 | CN1CC(=O)N=C1NC(=O)Nc1cccc(Cl)c1 [fenobam] | 93.1% | 94.4% | 90.1% | 103% | 97.7% | 102% | 101% | 100% | 105% | 97.1% | 100% | 97% | 99.5% | 100% | 101% | 96.6% | 106% | 98.2% | 102% | 98.3% | 110% | 99.4% | 112% | 97% | 103% | > 10 µM | > 10 µM | > 10 µM | > 10 µM | > 10 µM | 0 | 0 | 0 | 0 | 0
4 | Cc1[nH]c(/C=C2\C(=O)Nc3ccccc32)c(C)c1CCC(=O)O [orantinib] | 101% | 96.9% | 102% | 104% | 97.5% | 98.8% | 104% | 107% | 106% | 99.2% | 107% | 103% | 103% | 96.2% | 98.1% | 98.1% | 94.3% | 101% | 99.1% | 98.4% | 98.3% | 103% | 106% | 98.7% | 100% | > 10 µM | > 10 µM | > 10 µM | > 10 µM | > 10 µM | 0 | 0 | 0 | 0 | 0
5 | Clc1ccc([C@]23CNC[C@H]2C3)cc1Cl [amitifadine] | 99.2% | 92% | 103% | 87.3% | 95.8% | 106% | 90.7% | 101% | 105% | 97.9% | 101% | 105% | 100% | 103% | 99% | 100% | 97.6% | 103% | 98.4% | 104% | 89.5% | 104% | 98.2% | 98.6% | 94.9% | > 10 µM | > 10 µM | > 10 µM | > 10 µM | > 10 µM | 0 | 0 | 0 | 0 | 0
